pIC50: −log10 of the molar value. Several values for one entry are separate records, joined by “and”; a condition that tells them apart may be missing. Equal entries are not always repeated.
Target: T1, human P2X4 (Homo sapiens, UniProt Q99571)
T1 sequence (Q99571 1-388): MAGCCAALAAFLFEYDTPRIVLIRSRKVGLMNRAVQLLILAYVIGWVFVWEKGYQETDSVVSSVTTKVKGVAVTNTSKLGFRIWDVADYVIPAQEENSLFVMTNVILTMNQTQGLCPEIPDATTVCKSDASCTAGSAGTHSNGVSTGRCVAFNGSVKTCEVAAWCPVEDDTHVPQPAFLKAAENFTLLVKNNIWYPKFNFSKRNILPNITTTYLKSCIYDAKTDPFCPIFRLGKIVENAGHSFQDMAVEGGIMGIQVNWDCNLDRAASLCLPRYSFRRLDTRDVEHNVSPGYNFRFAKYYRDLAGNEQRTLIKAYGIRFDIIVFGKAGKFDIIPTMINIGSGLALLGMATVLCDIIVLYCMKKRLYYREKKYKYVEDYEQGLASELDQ
Assay: Human P2X4 HEK Cell FLIPR Assay
Assay type: cell-based
Details: agonist Bz-ATP at EC80; for Emax: HEK293, HEK293 cells, percentage of maximal inhibition, read-out: Human P2X4 HEK Cells (FLIPR Assay) avg Efficacy [%]; for pIC50: HEK293 cells, individual values listed where some fall outside detection range
How it was run: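 Calcium flux read by FLIPR for 120 sec after Bz-ATP challenge at EC80 (established each assay day), following 30 min room-temperature compound preincubation in dye-loaded stable human P2X4 HEK293 cells. Peak RFU over basal normalized to agonist control; IC50, maximal inhibition and Hill coefficient from triplicate means.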

SMILES	Emax [%]	pIC50
N#Cc1cnn(-c2cc(C(F)(F)F)c(NC(=O)Cc3cc(C(F)(F)F)ccc3Cl)cc2S(N)(=O)=O)c1 [Example 486, 2-[2-Chloro-5-(trifluoromethyl)phenyl]-N-[4-(4-cyano-1H-pyrazol-1-yl)-5-sulfamoyl-2-(trifluoromethyl)phenyl]acetamide]	71	5.13
N#Cc1cnn(-c2cc(C(F)(F)F)c(NC(=O)Cc3cccc(C(F)(F)F)c3Cl)cc2S(N)(=O)=O)c1 [Example 488, 2-[2-Chloro-3-(trifluoromethyl)phenyl]-N-[4-(4-cyano-1H-pyrazol-1-yl)-5-sulfamoyl-2-(trifluoromethyl)phenyl]acetamide]	78	5.63
NS(=O)(=O)c1c(-c2cnn(C(F)F)c2)ccc(NC(=O)Cc2ccccc2Cl)c1C(F)(F)F [Example 489, 2-(2-Chlorophenyl)-N-{4-[1-(difluoromethyl)-1H-pyrazol-4-yl]-3-sulfamoyl-2-(trifluoromethyl)phenyl}acetamide]	83	5.69
NS(=O)(=O)c1cc(NC(=O)Cc2cccc(C(F)(F)F)c2Cl)ccc1-c1cnn(C(F)F)c1 [Example 490, 2-[2-Chloro-3-(trifluoromethyl)phenyl]-N-{4-[1-(difluoromethyl)-1H-pyrazol-4-yl]-3-sulfamoylphenyl}acetamide]	95	7.04
NS(=O)(=O)c1c(-c2cnn(C(F)F)c2)ccc(NC(=O)Cc2ccccc2Cl)c1F [Example 493, 2-(2-Chlorophenyl)-N-{4-[1-(difluoromethyl)-1H-pyrazol-4-yl]-2-fluoro-3-sulfamoylphenyl}acetamide]	90	6.64
NS(=O)(=O)c1cc(NC(=O)Cc2ccccc2Cl)c(F)cc1-c1cnn(C(F)F)c1 [Example 494, 2-(2-Chlorophenyl)-N-{4-[1-(difluoromethyl)-1H-pyrazol-4-yl]-2-fluoro-5-sulfamoylphenyl}acetamide]	94	6.69
CN(C)c1nc(-c2ccc(NC(=O)Cc3ccccc3Cl)cc2S(N)(=O)=O)cs1 [Example 495, 2-(2-Chlorophenyl)-N-{4-[2-(dimethylamino)-1,3-thiazol-4-yl]-3-sulfamoylphenyl}acetamide]	75	6.89
NS(=O)(=O)c1cc(NC(=O)Cc2ccccc2Cl)ccc1-c1ccns1 [Example 496, 2-(2-Chlorophenyl)-N-[3-sulfamoyl-4-(1,2-thiazol-5-yl)phenyl]acetamide]	87	7.66
CN(C(=O)c1cnn(-c2ccc(NC(=O)Cc3ccccc3Cl)cc2S(N)(=O)=O)c1)C1CC1 [Example 497, 1-(4-{[(2-Chlorophenyl)acetyl]amino}-2-sulfamoylphenyl)-N-cyclopropyl-N-methyl-1H-pyrazole-4-carboxamide]	97	7.27
N#Cc1cn(-c2ccc(NC(=O)Cc3ccccc3Cl)cc2S(N)(=O)=O)nc1O [Example 500, 2-(2-Chlorophenyl)-N-[4-(4-cyano-3-hydroxy-1H-pyrazol-1-yl)-3-sulfamoylphenyl]acetamide]	40	< 4.60
NS(=O)(=O)c1cc(NC(=O)Cc2ccccc2Cl)ccc1-n1ncc2cnccc21 [Example 501, 2-(2-Chlorophenyl)-N-[4-(1H-pyrazolo[4,3-c]pyridin-1-yl)-3-sulfamoylphenyl]acetamide]	92	8.52
Cc1nc(-c2ccc(NC(=O)Cc3ccccc3Cl)cc2S(N)(=O)=O)sc1C [Example 502, 2-(2-Chlorophenyl)-N-[4-(4,5-dimethyl-1,3-thiazol-2-yl)-3-sulfamoylphenyl]acetamide]	49	4.86
Cc1nc(C)c(-c2ccc(NC(=O)Cc3ccccc3Cl)cc2S(N)(=O)=O)s1 [Example 503, 2-(2-Chlorophenyl)-N-[4-(2,4-dimethyl-1,3-thiazol-5-yl)-3-sulfamoylphenyl]acetamide]	102	7.33
Cc1ncsc1-c1ccc(NC(=O)Cc2ccccc2Cl)cc1S(N)(=O)=O [Example 504, 2-(2-Chlorophenyl)-N-[4-(4-methyl-1,3-thiazol-5-yl)-3-sulfamoylphenyl]acetamide]	98	7.48
NS(=O)(=O)c1cc(NC(=O)Cc2ccccc2Cl)ccc1-n1cc(NC(=O)C(F)F)cn1 [Example 506, N-[1-(4-{[(2-Chlorophenyl)acetyl]amino}-2-sulfamoylphenyl)-1H-pyrazol-4-yl]-2,2-difluoroacetamide]	91	6.41
C[C@@H]1CC[C@H](C)N1c1cnn(-c2ccc(NC(=O)Cc3ccccc3Cl)cc2S(N)(=O)=O)c1 [Example 511, 2-(2-Chlorophenyl)-N-(4-{4-[(cis)-2,5-dimethylpyrrolidin-1-yl]-1H-pyrazol-1-yl}-3-sulfamoylphenyl)acetamide]	60	6.46
NS(=O)(=O)c1cc(NC(=O)Cc2ccccc2F)ccc1-n1cc(NCC(F)F)cn1 [Example 514, N-(4-{4-[(2,2-Difluoroethyl)amino]-1H-pyrazol-1-yl}-3-sulfamoylphenyl)-2-(2-fluorophenyl)acetamide]	102	6.97
CC(C)c1cnn(-c2ccc(NC(=O)Cc3ccccc3Cl)cc2S(N)(=O)=O)c1 [Example 516, 2-(2-Chlorophenyl)-N-[4-(4-isopropyl-1H-pyrazol-1-yl)-3-sulfamoylphenyl]acetamide]	68	7.02
CC(C)c1cnn(-c2ccc(NC(=O)Cc3ccccc3F)cc2S(N)(=O)=O)c1 [Example 517, 2-(2-Fluorophenyl)-N-[4-(4-isopropyl-1H-pyrazol-1-yl)-3-sulfamoylphenyl]acetamide]	74	6.73

The remaining lines, values ahead:

Emax [%]	pIC50	SMILES
86	7.15	NS(=O)(=O)c1cc(NC(=O)Cc2ccccc2Cl)ccc1-c1cnc(C(F)(F)F)s1 [Example 483, 2-(2-Chlorophenyl)-N-{3-sulfamoyl-4-[2-(trifluoromethyl)-1,3-thiazol-5-yl]phenyl}acetamide]
63	6.40	N#Cc1cnn(-c2cc(C(F)(F)F)c(NC(=O)Cc3ccccc3Cl)cc2S(N)(=O)=O)c1 [Example 484, 2-(2-Chlorophenyl)-N-[4-(4-cyano-1H-pyrazol-1-yl)-5-sulfamoyl-2-(trifluoromethyl)phenyl]acetamide]
100	6.89	N#Cc1cnn(-c2ccc(NC(=O)Cc3cc(C(F)(F)F)ccc3Cl)cc2S(N)(=O)=O)c1 [Example 485, 2-[2-Chloro-5-(trifluoromethyl)phenyl]-N-[4-(4-cyano-1H-pyrazol-1-yl)-3-sulfamoylphenyl]acetamide]
45	< 4.60	N#Cc1cnn(-c2ccc(NC(=O)Cc3ccccc3Cl)c(C(F)(F)F)c2S(N)(=O)=O)c1 [Example 487, 2-(2-Chlorophenyl)-N-[4-(4-cyano-1H-pyrazol-1-yl)-3-sulfamoyl-2-(trifluoromethyl)phenyl]acetamide]
67	5.04	NS(=O)(=O)c1cc(NC(=O)Cc2ccccc2Cl)c(C(F)(F)F)cc1-c1cnn(C(F)F)c1 [Example 491, 2-(2-Chlorophenyl)-N-{4-[1-(difluoromethyl)-1H-pyrazol-4-yl]-5-sulfamoyl-2-(trifluoromethyl)phenyl}acetamide]
92	6.27	NS(=O)(=O)c1cc(NC(=O)Cc2ccccc2Cl)ccc1-c1cnn(C(F)F)c1C(F)(F)F [Example 492, 2-(2-Chlorophenyl)-N-{4-[1-(difluoromethyl)-5-(trifluoromethyl)-1H-pyrazol-4-yl]-3-sulfamoylphenyl}acetamide]
50	4.74 and < 4.60	NS(=O)(=O)c1cc(NC(=O)C(O)c2ccccc2Cl)ccc1-n1cc(C(F)(F)F)cn1 (centres unmarked) [Example 498, 2-(2-Chlorophenyl)-2-hydroxy-N-{3-sulfamoyl-4-[4-(trifluoromethyl)-1H-pyrazol-1-yl]phenyl}ethanamide]
69	6.46	NS(=O)(=O)c1cc(NC(=O)Cc2ccccc2Cl)cc(Cl)c1-n1cc(C(F)(F)F)cn1 [Example 499, 2-(2-Chlorophenyl)-N-{3-chloro-5-sulfamoyl-4-[4-(trifluoromethyl)-1H-pyrazol-1-yl]phenyl}acetamide]
93	6.88	Nc1cnn(-c2ccc(NC(=O)Cc3ccccc3Cl)cc2S(N)(=O)=O)c1 [Example 505]
86	6.74	NS(=O)(=O)c1cc(NC(=O)Cc2ccccc2Cl)ccc1-n1cc(NC(=O)CC(F)(F)F)cn1 [Example 507, N-[1-(4-{[(2-Chlorophenyl)acetyl]amino}-2-sulfamoylphenyl)-1H-pyrazol-4-yl]-3,3,3-trifluoropropanamide]
101	7.35	NS(=O)(=O)c1cc(NC(=O)Cc2ccccc2Cl)ccc1-n1cc(NCC(F)(F)F)cn1 [Example 515, 2-(2-Chlorophenyl)-N-(3-sulfamoyl-4-{4-[(2,2,2-trifluoroethyl)amino]-1H-pyrazol-1-yl}phenyl)acetamide]
80	7.44	NS(=O)(=O)c1cc(NC(=O)Cc2ccccc2Cl)ccc1-n1cc(CC(F)(F)F)cn1 [Example 518, 2-(2-Chlorophenyl)-N-{3-sulfamoyl-4-[4-(2,2,2-trifluoroethyl)-1H-pyrazol-1-yl]phenyl}acetamide]

Source: patent publication US11524938B2, “Aromatic sulfonamide derivatives” (Bayer Pharma Aktiengesellschaft, priority 2016, dated 2022)
